Values quoted from earlier work, collected in patent US20100160456A1 (priority 2007, published 2010).

How the values were obtained:
[1] = incidence grade
[2] = known emulsion
[3] = after being injected with Propofol

Molecule	Awakening [1]	Excitation [1]	Injection-related pain [1]	Latency [1]	Nausea & vomiting [1]	Delirium [1]	shelf-life of the product once the ampoule is opened [2]	patients with a rejection to the acute pain after injection [3] [%]
C=CCC1(C(C)C#CCC)C(=O)N=C(O)N(C)C1=O (stereo not shown) [MTOX, Methohexital]	+	+	+	++				
CCCC(C)C1(CC)C(=O)NC(=S)NC1=O (stereo not shown) [TIOP, Thiopental]	+		+	++				
CCCOC(=O)Cc1ccc(OCC(=O)N(CC)CC)c(OC)c1 [PRPN, Propanidine]		+		+	++			
Althesin [ALTS]	+	+		+	+			
CC(=O)NS(=O)(=O)c1ccc(N)cc1 [KET, Cetamide]		+++		+	+	+++		
CCOC(=O)c1cncn1[C@H](C)c1ccccc1 [ETOM, Etomidate]		++	+	+	+	+		
CC(C)c1cccc(C(C)C)c1O [Propofol, 2,6-diisopropylphenol]	+		+++	++			approximately 8 hours	80
